Measured values: BigSolDB 2.1

CN(Cc1ccccc1)CN1C(=O)C(=NNC(=O)c2ccccc2OCc2ccccc2)c2ccccc21
Conditions	solubility (mole fraction)
in PEG-400, 298.15 K	0.00711
in PEG-400, 303.15 K	0.00781
in PEG-400, 308.15 K	0.00887
in PEG-400, 313.15 K	0.00992
in PEG-400, 318.15 K	0.0114

solubility (mole fraction)
Conditions	in ethanol	in ethylene glycol	in isopropanol	in n-butanol	in propylene glycol	in sec-butanol	in transcutol	in water
298.15 K	0.000474	0.000304	0.000414	0.000759	0.000362	0.000808	0.00394	1.11e-06
303.15 K	0.000583	0.000416	0.00053	0.00091	0.000488	0.000968	0.00453	1.5e-06
308.15 K	0.000715	0.000536	0.000658	0.00106	0.000624	0.00113	0.00533	1.93e-06
313.15 K	0.000832	0.000671	0.000802	0.00122	0.000782	0.00129	0.00618	2.46e-06
318.15 K	0.000969	0.000809	0.000941	0.00138	0.000952	0.00145	0.00714	3e-06
